Laboratory results from patent US8809328B2, “Imidazole derivative” (National University Corporation Shizuoka University, priority 2011, dated 2014).

Assays:
Format in all cases: in vivo
[1] = tested on: rice (Nipponbare) (Oryza sativa L. cv. Nipponbare); assay: Influence of AOH and 3-methyl-AOH on rice seedlings in test tube culture fluid (Example 12); conditions: 0.2 mM in culture fluid, 28° C., one week; for Extension of roots: FIG. 8
Experimental: Sterilized seeds of rice (Nipponbare) (Oryza sativa L. cv. Nipponbare) were allowed to sprout at 28° C. in three days. The sprouted seeds (four seeds per test tube) were cultivated in a test tube, in which a control culture fluid, a culture fluid to which 0.2 mM of AOH was added, or a culture fluid to which 0.2 mM of 3-methyl-AOH was added and was placed, at 28° C. for a week. The control culture fluid comprises 0.5 mM of NH4NO3, 0.3 mM of Na2HPO4, 0.15 mM of K2SO4, 0.2 mM of MgCl2, 0.1 mM of CaCl2, 23 μM of Fe-ethylenediaminetetraacetic acid (Fe-EDTA), 25 μM of H3BO3, 4.5 μM of MnSO4, 0.15 μM of CuSO4, 0.35 μM of ZnSO4, and 0.05 μM of Na2MoO4. The culture fluid was replaced with new culture fluid every other day. After cultivation, the length of shoots and roots was measured. […] (In FIG. 8, “*” indicates P value <0.05, and “**” indicates P value <0.01. n=16.). In contrast, 3-methyl-AOH gave no influence on extension of the shoots.

[2] = tested on: Zoysiagrass (Agrostis stolonifera); assay: Zoysiagrass cultivated on agar medium added with AHX; conditions: agar medium with 1 mM AHX, 30 days, vs control section
[3] = tested on: Rice (Oryza sativa); assay: Rice cultivated in culture fluid added with AHX; conditions: culture fluid with 0.2 mM AHX, 14 days, vs control section
[4] = tested on: rice (Nipponbare) (Oryza sativa L. cv. Nipponbare); assay: Influence of AHX or AOH on rice seedlings in test tube culture fluid (Example 6); conditions: 50, 200 or 1000 μM in culture fluid, 28° C., one week, FIG. 4
Experimental: Sterilized seeds of rice (Nipponbare) (Oryza sativa L. cv. Nipponbare) were allowed to sprout at 28° C. in three days. The sprouted seeds (four seeds per test tube) were cultivated in a test tube, in which a control culture fluid or a culture fluid to which AHX or AOH was added to different concentrations and was placed, at 28° C. for a week. AOH that was produced according to the method of Example 5 was used. The control culture fluid comprises 0.5 mM of NH4NO3, 0.3 mM of Na2HPO4, 0.15 mM of K2SO4, 0.2 mM of MgCl2, 0.1 mM of CaCl2, 23 μM of Fe-ethylenediaminetetraacetic acid (Fe-EDTA), 25 μM of H3BO3, 4.5 μM of MnSO4, 0.15 μM of CuSO4, 0.35 μM of ZnSO4, and 0.05 μM of Na2MoO4. As for the culture fluids containing AHX or AOH, AHX or AOH is added to the above described control culture fluids such that the final concentration becomes 50 μM, 200 μM or 1000 μM. The culture fluid was replaced with new culture fluid every other day. After cultivation, the length of shoots and roots was measured.

[5] = tested on: rice (Nipponbare) (Oryza sativa L. cv. Nipponbare); assay: Influence of AOH on soil cultivation of rice (pot cultivation)
Experimental: Rice (Nipponbare) (Oryza sativa L. cv. Nipponbare) was sown on Apr. 29, 2011, and each of grown seedlings was transplanted to a pot (1/5000a pot) filled with soil which contains a fertilizer comprising N (1440 mg), P2O5 (12 mg), K2O (760 mg) and CaO (806 mg) on June 7th, and was soil-cultivated in a greenhouse (28° C.) under any one of seven types of cultivation conditions of the following (1) to (7) until September 24th. Supply of water was performed by providing two liter of tap water or tap water to which AOH was added every week (see below).
(1) Tap water was provided during pot cultivation.
(2) Tap water to which AOH was added such that the final concentration became 50 μM was provided for two weeks (from June 7th to June 20th) in the planting stage. Tap water was provided in the other period.
(3) Tap water to which AOH was added such that the final concentration became 50 μM was provided for two weeks (from July 4th to July 17th) in the tillering stage. Tap water was provided in the other period.
(4) Tap water added to which AOH was added such that the final concentration became 50 μM was provided for two weeks (from July 25th to August 7th) in the topdressing stage for panicle formation. Tap water was provided in the other period.
(5) Tap water added to which AOH was added such that the final concentration became 50 μM was provided for two weeks (from August 15th to August 28th) in the topdressing stage for ripening. Tap water was provided in the other period. […]
(7) Tap water to which AOH was added such that the final concentration became 50 μM was provided during pot cultivation.
Brown rice and plant bodies soil-cultivated were dried at 30° C. for 15 days, and brown rice weight (both of weight per plant and weight per 100 brown rice grains), panicle length, culm length, number of panicles, number of tillers, and aerial part weight were measured.

[6] = tested on: rice (Nipponbare) (Oryza sativa L. cv. Nipponbare); assay: Influence of AOH on soil cultivation of rice (field cultivation)
Experimental: Rice (Nipponbare) (Oryza sativa L. cv. Nipponbare) was used and cultivated in a field as follows. As cultivation conditions, five sections of (1) to (5) were set.
Rice (Nipponbare) (Oryza sativa L. cv. Nipponbare) was sown in a nursery box on Apr. 29, 2011, and provided with a total of 15 liters of tap water or tap water to which AOH was added for two weeks from May 24th while raising seedling in the nursery box. On June 7th, each of grown seedlings was transplanted to the field. The planting density was set to the interrow space of 30 cm and the planting distance of 15 cm (three reproductions of 3×3.3 m per one section). As basal fertilizer, 50 L of tap water or tap water to which AOH was added per section was supplied on June 7th. The cultivation was continued, and as topdressing for panicle formation, 50 L of tap water or tap water to which AOH was added per section was supplied on July 25th. Plant bodies were harvested on October 12th.
(1) Tap water was used as the culture fluid during seedling raising, the basal fertilizer, and the topdressing for panicle formation.
(2) Tap water to which AOH was added such that the final concentration became 0.5 mM was provided as the culture fluid during seedling raising. Tap water was used as the basal fertilizer, and the topdressing for panicle formation.
(3) Tap water to which AOH was added such that the final concentration became 1.0 mM was provided as the culture fluid during seedling raising. Tap water was used as the basal fertilizer and the topdressing for panicle formation.
(4) Tap water to which AOH was added such that the final concentration became 0.5 mM was provided as the basal fertilizer. Tap water was used as the culture fluid during seedling raising and the topdressing for panicle formation.
(5) Tap water to which AOH was added such that the final concentration became 0.5 mM was provided as the topdressing for panicle formation. Tap water was used as the culture fluid during seedling raising and the basal fertilizer.
Brown rice was dried, and total brown rice weight, hull weight, non-sieved brown rice weight and sieved brown rice, per 10 plant bodies, and thousand kernel weight were measured.

[7] = 50 μM AOH, topdressing stage for panicle formation
[8] = 50 μM AOH, topdressing stage for ripening
[9] = applying AOH all the time, vs control
[10] = 0.5 mM AOH during seedling raising
[11] = 0.5 mM AOH, topdressing at panicle formation
[12] = 1.0 mM AOH during seedling raising
[13] = per 10 plants, 0.5 mM AOH as basal fertilizer
[14] = per 10 plants, 0.5 mM AOH during seedling raising
[15] = per 10 plants, 0.5 mM AOH, topdressing at panicle formation
[16] = per 10 plants, 1.0 mM AOH during seedling raising

Cn1nnc2[nH]c(=O)[nH]c2c1=O [3-methyl-AOH, 3-methyl-3H-imidazo[4,5-d][1,2,3]triazin-4,6(5H,7H)-dione]
Extension of shoots [1]: no influence | Extension of roots [1]: had extension activity for roots

O=c1[nH]nnc2[nH]cnc12 [AHX, 7H-imidazo[4,5-d][1,2,3]triazin-4(3H)-one]
Extension of shoots [2]: clearly promoted | Extension of shoots [3]: clearly promoted | Extension of shoots and roots [4]: promoted extension of shoots and roots concentration-dependently

O=c1[nH]c2nn[nH]c(=O)c2[nH]1 [AOH, 3H-imidazo[4,5-d][1,2,3]triazin-4,6(5H,7H)-dione]
Extension of shoots and roots [4]: promoted extension of shoots and roots concentration-dependently | Extension of roots [1]: had extension activity for roots | Aerial part ([5]; 5 μM AOH, all the time): 151 ± 6.19 g | Brown rice weight (g/100 grains) ([5]; 5 μM AOH, all the time): 2.13 ± 0.09 g/100 grains | Brown rice weight (g/plant) ([5]; 5 μM AOH, all the time): 59.3 ± 2.27 g/plant | Culm length ([5]; 5 μM AOH, all the time): 89.7 ± 6.40 cm | Increasing rate of aerial part relative to control ([5]; 5 μM AOH, all the time): 30% | Increasing rate of brown rice weight per plant relative to control ([5]; 5 μM AOH, all the time): 42% | Increasing rate of number of panicles relative to control ([5]; 5 μM AOH, all the time): 24% | Number of tillers ([5]; 5 μM AOH, all the time): 37.9 ± 3.71 | Panicle length ([5]; 5 μM AOH, all the time): 24.5 ± 2.24 cm | number of panicles ([5]; 5 μM AOH, all the time): 32.8 ± 2.48 | Aerial part ([5]; 50 μM AOH, all the time): 147 ± 9.63 g | Brown rice weight (g/100 grains) ([5]; 50 μM AOH, all the time): 2.15 ± 0.16 g/100 grains | Brown rice weight (g/plant) ([5]; 50 μM AOH, all the time): 58.2 ± 3.76 g/plant | Culm length ([5]; 50 μM AOH, all the time): 92.3 ± 5.64 cm | Increasing rate of aerial part relative to control ([5]; 50 μM AOH, all the time): 27% | Increasing rate of brown rice weight per plant relative to control ([5]; 50 μM AOH, all the time): 40% | Increasing rate of number of panicles relative to control ([5]; 50 μM AOH, all the time): 23% | Number of tillers ([5]; 50 μM AOH, all the time): 35.7 ± 4.15 | Panicle length ([5]; 50 μM AOH, all the time): 24.4 ± 1.96 cm | number of panicles ([5]; 50 μM AOH, all the time): 32.7 ± 4.03 | Aerial part ([5]; 50 μM AOH, planting stage): 125 ± 21.2 g | Brown rice weight (g/100 grains) ([5]; 50 μM AOH, planting stage): 2.11 ± 0.07 g/100 grains | Brown rice weight (g/plant) ([5]; 50 μM AOH, planting stage): 46.6 ± 9.43 g/plant | Culm length ([5]; 50 μM AOH, planting stage): 97.1 ± 12.1 cm | Increasing rate of brown rice weight per plant relative to control ([5]; 50 μM AOH, planting stage): 12% | Number of tillers ([5]; 50 μM AOH, planting stage): 34.6 ± 2.70 | Panicle length ([5]; 50 μM AOH, planting stage): 23.5 ± 1.61 cm | number of panicles ([5]; 50 μM AOH, planting stage): 27.8 ± 4.26 | Aerial part ([5]; 50 μM AOH, tillering stage): 112 ± 30.0 g | Brown rice weight (g/100 grains) ([5]; 50 μM AOH, tillering stage): 2.12 ± 0.12 g/100 grains | Brown rice weight (g/plant) ([5]; 50 μM AOH, tillering stage): 42.3 ± 12.2 g/plant | Culm length ([5]; 50 μM AOH, tillering stage): 94.5 ± 4.63 cm | Number of tillers ([5]; 50 μM AOH, tillering stage): 30.9 ± 3.67 | Panicle length ([5]; 50 μM AOH, tillering stage): 26.2 ± 1.03 cm | number of panicles ([5]; 50 μM AOH, tillering stage): 23.0 ± 5.44 | Aerial part [5, 7]: 134 ± 16.5 g | Brown rice weight (g/100 grains) [5, 7]: 2.12 ± 0.07 g/100 grains | Brown rice weight (g/plant) [5, 7]: 53.7 ± 3.59 g/plant | Culm length [5, 7]: 90.2 ± 6.15 cm | Increasing rate of brown rice weight per plant relative to control [5, 7]: 29% | Number of tillers [5, 7]: 31.6 ± 3.60 | Panicle length [5, 7]: 24.5 ± 1.61 cm | number of panicles [5, 7]: 30.5 ± 4.50 | Aerial part [5, 8]: 131 ± 13.3 g | Brown rice weight (g/100 grains) [5, 8]: 2.18 ± 0.08 g/100 grains | Brown rice weight (g/plant) [5, 8]: 53.2 ± 2.61 g/plant | Culm length [5, 8]: 92.8 ± 3.98 cm | Increasing rate of brown rice weight per plant relative to control [5, 8]: 28% | Number of tillers [5, 8]: 31.4 ± 3.91 | Panicle length [5, 8]: 24.0 ± 2.07 cm | number of panicles [5, 8]: 28.8 ± 4.67 | aerial part weight [5, 9]: increased more than the control | number of panicles [5, 9]: increased more than the control | brown rice weight per plant ([5]; applying AOH in the topdressing stage for panicle formation or later, vs control): increased more than the control | Increasing rate of sieved brown rice relative to control ([6]; 0.5 mM AOH as basal fertilizer): 10.5% | Thousand kernel weight ([6]; 0.5 mM AOH as basal fertilizer): 23.5 ± 0.6 g | Increasing rate of sieved brown rice relative to control [6, 10]: 8.9% | Thousand kernel weight [6, 10]: 23.0 ± 0.5 g | Increasing rate of sieved brown rice relative to control [6, 11]: 7.2% | Thousand kernel weight [6, 11]: 23.4 ± 0.5 g | Increasing rate of sieved brown rice relative to control [6, 12]: 10.2% | Thousand kernel weight [6, 12]: 23.5 ± 0.3 g | Hull weight ([6]; applying AOH, vs control): increased more than the control | Sieved brown rice ([6]; applying AOH, vs control): increased more than the control | non-sieved brown rice weight ([6]; applying AOH, vs control): increased more than the control | total brown rice weight ([6]; applying AOH, vs control): increased more than the control | Hull weight [6, 13]: 288 ± 23.9 g | Non-sieved brown rice weight [6, 13]: 230 ± 19.7 g | Sieved brown rice [6, 13]: 222 ± 19.8 g | Total weight [6, 13]: 644 ± 49.5 g | Hull weight [6, 14]: 283 ± 35.0 g | Non-sieved brown rice weight [6, 14]: 227 ± 28.9 g | Sieved brown rice [6, 14]: 218 ± 29.0 g | Total weight [6, 14]: 630 ± 71.4 g | Hull weight [6, 15]: 279 ± 24.9 g | Non-sieved brown rice weight [6, 15]: 224 ± 20.9 g | Sieved brown rice [6, 15]: 215 ± 20.7 g | Total weight [6, 15]: 643 ± 54.1 g | Hull weight [6, 16]: 284 ± 24.4 g | Non-sieved brown rice weight [6, 16]: 228 ± 20.1 g | Sieved brown rice [6, 16]: 221 ± 19.5 g | Total weight [6, 16]: 638 ± 59.6 g
